According to patent US12257243B2, “5-hydroxy-7-oxabicyclo[2.2.1]heptane-2-carboxamide derivatives for inducing chondrogenesis for treating joint damage” (NOVARTIS AG, priority 2018, dated 2025):

Biological target: ALP in normal human articular chondrocytes (NHACs)
Experiment: Alkaline Phosphatase (ALP) activity assay (staining and quantitation) in NHACs, prevention of chondrocyte hypertrophy
Assay type: cell-based
Conditions: human IL-1 beta 10 ng/mL, 12 days; for IC50: Fast Blue RR staining, high content imaging, read-out: ALP in NHAC IC50; for ALP in NHAC (% Efficacy): value in parentheses
Method in brief: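 Hypertrophy readout: ALP staining (Fast Blue RR with naphthol AS-MX phosphate) plus Hoechst, imaged at 561 nm and/or quantified by high-content multiwavelength cell scoring. Before staining, NHACs (7,500/well, DMEM/10% FBS) were exposed to compound for 5 h, then cultured with 10 ng/mL IL-1β for 12 days at 37 °C.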

Row | SMILES | IC50 | ALP in NHAC (% Efficacy)
1 | Cn1cc([C@H]2[C@H]3O[C@H](C[C@@H]3O)[C@@H]2C(=O)Nc2cccc(C(F)(F)F)c2)c(C(F)(F)F)n1 (single isomer, unassigned) [Example 32a, (1R,2R,3S,4R,5S)-5-hydroxy-3-(1-methyl-3-(trifluoromethyl)-1H-pyrazol-4-yl)-N-(3-(trifluoromethyl)phenyl)-7-oxabicyclo[2.2.1]heptane-2-carboxamide or (1S,2S,3R,4S,5R)-5-hydroxy-3-(1-methyl-3-(trifluoromethyl)-1H-pyrazol-4-yl)-N-(3-(trifluoromethyl)phenyl)-7-oxabicyclo[2.2.1]heptane-2-carboxamide] | 6.6 µM | 87%
2 | Cn1cc([C@H]2[C@H]3O[C@H](C[C@@H]3O)[C@@H]2C(=O)Nc2cccc(C(F)(F)F)c2)c(C(F)(F)F)n1 (single isomer, unassigned) [Example 32b, (1R,2R,3S,4R,5S)-5-hydroxy-3-(1-methyl-3-(trifluoromethyl)-1H-pyrazol-4-yl)-N-(3-(trifluoromethyl)phenyl)-7-oxabicyclo[2.2.1]heptane-2-carboxamide or (1S,2S,3R,4S,5R)-5-hydroxy-3-(1-methyl-3-(trifluoromethyl)-1H-pyrazol-4-yl)-N-(3-(trifluoromethyl)phenyl)-7-oxabicyclo[2.2.1]heptane-2-carboxamide] | 16 µM | 109%
3 | COc1ccc(C(F)(F)F)cc1NC(=O)[C@H]1[C@H](c2cn(C)nc2C(F)(F)F)[C@@H]2O[C@H]1C[C@H]2O (single isomer, unassigned) [Example 33a, (1R,2R,3S,4R,5S)-5-hydroxy-N-(2-methoxy-5-trifluoromethyl)phenyl)-3-(1-methyl-3-(trifluoromethyl)-1H-pyrazol-4-L)-7-oxabicyclo[2.2.1]heptane-2-carboxamide or (1S,2S,3R,4S,5R)-5-hydroxy-N-(2-methoxy-5-(trifluoromethyl)phenyl)-3-(1-methyl-3-(trifluoromethyl)-1H-pyrazol-4-L)-7-oxabicyclo[2.2.1]heptane-2-carboxamide] | 6.6 µM | 79%
4 | COc1ccc(C(F)(F)F)cc1NC(=O)[C@H]1[C@H](c2cn(C)nc2C(F)(F)F)[C@@H]2O[C@H]1C[C@H]2O (single isomer, unassigned) [Example 33b, (1R,2R,3S,4R,5S)-5-hydroxy-N-(2-methoxy-5-trifluoromethyl)phenyl)-3-(1-methyl-3-(trifluoromethyl)-1H-pyrazol-4-L)-7-oxabicyclo[2.2.1]heptane-2-carboxamide or (1S,2S,3R,4S,5R)-5-hydroxy-N-(2-methoxy-5-(trifluoromethyl)phenyl)-3-(1-methyl-3-(trifluoromethyl)-1H-pyrazol-4-L)-7-oxabicyclo[2.2.1]heptane-2-carboxamide] | 3.1 µM | 99%
5 | Cn1cc([C@H]2[C@H]3O[C@H](C[C@@H]3O)[C@@H]2C(=O)Nc2cc(C(F)(F)F)c(Cl)cn2)c(C(F)(F)F)n1 (single isomer, unassigned) [Example 36a, (1R 2R,3S,4R,5S)—N-(5-chloro-4-(trifluoromethyl)pyridin-2-yl)-5-hydroxy-3-(1-methyl-3-(trifluoromethyl)-1H-pyrazol-4-yl)-7-oxabicyclo[2.2.1]heptane-2-carboxamide or (1S,2S,3R,4S,5R)—N-(5-chloro-4-(trifluoromethyl)pyridin-2-yl)-5-hydroxy-3-(1-methyl-3-(trifluoromethyl)-1H-pyrazol-4-yl)-7-oxabicyclo[2.2.1]heptane-2-carboxamide] | 9.4 µM | 95%
6 | Cn1cc([C@H]2[C@H]3O[C@H](C[C@@H]3O)[C@@H]2C(=O)Nc2cc(C(F)(F)F)c(Cl)cn2)c(C(F)(F)F)n1 (single isomer, unassigned) [Example 36b, (1R 2R,3S,4R,5S)—N-(5-chloro-4-(trifluoromethyl)pyridin-2-yl)-5-hydroxy-3-(1-methyl-3-(trifluoromethyl)-1H-pyrazol-4-yl)-7-oxabicyclo[2.2.1]heptane-2-carboxamide or (1S,2S,3R,4S,5R)—N-(5-chloro-4-(trifluoromethyl)pyridin-2-yl)-5-hydroxy-3-(1-methyl-3-(trifluoromethyl)-1H-pyrazol-4-yl)-7-oxabicyclo[2.2.1]heptane-2-carboxamide] | 17 µM | 83%
7 | Cn1cc([C@H]2[C@H]3O[C@H](C[C@@H]3O)[C@@H]2C(=O)Nc2cc(C(F)(F)F)ccn2)c(C(F)(F)F)n1 (single isomer, unassigned) [Example 38a, (1R,2R,3S,4R,5S)-5-hydroxy-3-(1-methyl-3-(trifluoromethyl)-1H-pyrazol-4-yl)-N-(4-(trifluoromethyl)pyridin-2-yl)-7-oxabicyclo[2.2.1]heptane-2-carboxamide or (1S,2S,3R,4S,5R)-5-hydroxy-3-(1-methyl-3-(trifluoromethyl)-1H-pyrazol-4-yl)-N-(4-(trifluoromethyl)pyridin-2-yl)-7-oxabicyclo[2.2.1]heptane-2-carboxamide] | 5.9 µM | 81%
8 | Cn1cc([C@H]2[C@H]3O[C@H](C[C@@H]3O)[C@@H]2C(=O)Nc2cc(C(F)(F)F)ccn2)c(C(F)(F)F)n1 (single isomer, unassigned) [Example 38b, (1R,2R,3S,4R,5S)-5-hydroxy-3-(1-methyl-3-(trifluoromethyl)-1H-pyrazol-4-yl)-N-(4-(trifluoromethyl)pyridin-2-yl)-7-oxabicyclo[2.2.1]heptane-2-carboxamide or (1S,2S,3R,4S,5R)-5-hydroxy-3-(1-methyl-3-(trifluoromethyl)-1H-pyrazol-4-yl)-N-(4-(trifluoromethyl)pyridin-2-yl)-7-oxabicyclo[2.2.1]heptane-2-carboxamide] | > 30 µM | 27%
9 | N#Cc1ccc(C(F)(F)F)cc1NC(=O)[C@@H]1[C@@H](c2cccc(C(F)(F)F)c2)[C@H]2O[C@@H]1C[C@@H]2O (single isomer, unassigned) [Example 48a, (1R,2R,3S,4R,5S)—N-(2-cyano-5-(trifluoromethyl)phenyl)-5-hydroxy-3-(3-(trifluoromethyl)phenyl)-7-oxabicyclo[2.2.1]heptane-2-carboxamide or (1S,2S,3R,4S,5R)—N-(2-cyano-5-(trifluoromethyl)phenyl)-5-hydroxy-3-(3-(trifluoromethyl)phenyl)-7-oxabicyclo[2.2.1]heptane-2-carboxamide] | 1.5 µM | 109%
10 | N#Cc1ccc(C(F)(F)F)cc1NC(=O)[C@@H]1[C@@H](c2cccc(C(F)(F)F)c2)[C@H]2O[C@@H]1C[C@@H]2O (single isomer, unassigned) [Example 48b, (1R,2R,3S,4R,5S)—N-(2-cyano-5-(trifluoromethyl)phenyl)-5-hydroxy-3-(3-(trifluoromethyl)phenyl)-7-oxabicyclo[2.2.1]heptane-2-carboxamide or (1S,2S,3R,4S,5R)—N-(2-cyano-5-(trifluoromethyl)phenyl)-5-hydroxy-3-(3-(trifluoromethyl)phenyl)-7-oxabicyclo[2.2.1]heptane-2-carboxamide] | 1.9 µM | 98%
11 | Cn1cc([C@H]2[C@H]3O[C@H](C[C@@H]3O)[C@@H]2C(=O)Nc2cc(C(F)(F)F)ccc2C#N)c(C(F)(F)F)n1 (single isomer, unassigned) [Example 49a, (1R,2R,3S,4R,5N-(2-cyano-5-(trifluoromethyl)phenyl)-5-hydroxy-3-(1-methyl-3-(trifluoromethyl)-1H-pyrazol-4-yl)-7-oxabicyclo[2.2.1]heptane-2-carboxamide or (1S,2S,3R,4S,5R)—N-(2-cyano-5-(trifluoromethyl)phenyl)-5-hydroxy-3-(1-methyl-3-(trifluoromethyl)-1H-pyrazol-4-yl)-7-oxabicyclo[2.2.1]heptane-2-carboxamide] | 1.9 µM | 101%
12 | Cn1cc([C@H]2[C@H]3O[C@H](C[C@@H]3O)[C@@H]2C(=O)Nc2cc(C(F)(F)F)ccc2C#N)c(C(F)(F)F)n1 (single isomer, unassigned) [Example 49b, (1R,2R,3S,4R,5N-(2-cyano-5-(trifluoromethyl)phenyl)-5-hydroxy-3-(1-methyl-3-(trifluoromethyl)-1H-pyrazol-4-yl)-7-oxabicyclo[2.2.1]heptane-2-carboxamide or (1S,2S,3R,4S,5R)—N-(2-cyano-5-(trifluoromethyl)phenyl)-5-hydroxy-3-(1-methyl-3-(trifluoromethyl)-1H-pyrazol-4-yl)-7-oxabicyclo[2.2.1]heptane-2-carboxamide] | 23 µM | 54%
13 | Cn1nc(C(F)(F)F)cc1[C@H]1[C@H]2O[C@H](C[C@@H]2O)[C@@H]1C(=O)Nc1cc(C(F)(F)F)ccc1C#N (single isomer, unassigned) [Example 72a, (1R,2R,3S,4R,5S)—N-(2-cyano-5-(trifluoromethyl)phenyl)-5-hydroxy-3-(1-methyl-3-(trifluoromethyl)-1H-pyrazol-5-yl)-7-oxabicyclo[2.2.1]heptane-2-carboxamide or (1S,2S,3R,4S,5R)—N-(2-cyano-5-(trifluoromethyl)phenyl)-5-hydroxy-3-(1-methyl-3-(trifluoromethyl)-1-pyrazol-5-yl)-7-oxabicyclo[2.2.1]heptane-2-carboxamide] | 3.1 µM | 107%
